The structures appear in SMILES notation.

This test deals with CSF-1R (Homo sapiens, UniProt P07333). The experiment in a line: Peptide (non-phosphorylated) assay, fluorescence polarization competition immunoassay. To be noted: 0.7 nM CSF-1R, 308 μM SYEGNSYTFIDPTQ peptide, 1 mM ATP, 80 min; mean of at least three determinations; read-out: c-fms Peptide IC50. It is filed as biochemical. The essentials: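 Human CSF-1R kinase reaction started with ATP and run 80 min at room temperature, then stopped with EDTA. Phosphopeptide detected by fluorescence polarization competition using anti-phosphotyrosine antibody and PTK green tracer after 30 min. Controls used 4% DMSO, with EDTA added before reaction start for positive controls.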
CSF-1R, sequence (P07333 20-972): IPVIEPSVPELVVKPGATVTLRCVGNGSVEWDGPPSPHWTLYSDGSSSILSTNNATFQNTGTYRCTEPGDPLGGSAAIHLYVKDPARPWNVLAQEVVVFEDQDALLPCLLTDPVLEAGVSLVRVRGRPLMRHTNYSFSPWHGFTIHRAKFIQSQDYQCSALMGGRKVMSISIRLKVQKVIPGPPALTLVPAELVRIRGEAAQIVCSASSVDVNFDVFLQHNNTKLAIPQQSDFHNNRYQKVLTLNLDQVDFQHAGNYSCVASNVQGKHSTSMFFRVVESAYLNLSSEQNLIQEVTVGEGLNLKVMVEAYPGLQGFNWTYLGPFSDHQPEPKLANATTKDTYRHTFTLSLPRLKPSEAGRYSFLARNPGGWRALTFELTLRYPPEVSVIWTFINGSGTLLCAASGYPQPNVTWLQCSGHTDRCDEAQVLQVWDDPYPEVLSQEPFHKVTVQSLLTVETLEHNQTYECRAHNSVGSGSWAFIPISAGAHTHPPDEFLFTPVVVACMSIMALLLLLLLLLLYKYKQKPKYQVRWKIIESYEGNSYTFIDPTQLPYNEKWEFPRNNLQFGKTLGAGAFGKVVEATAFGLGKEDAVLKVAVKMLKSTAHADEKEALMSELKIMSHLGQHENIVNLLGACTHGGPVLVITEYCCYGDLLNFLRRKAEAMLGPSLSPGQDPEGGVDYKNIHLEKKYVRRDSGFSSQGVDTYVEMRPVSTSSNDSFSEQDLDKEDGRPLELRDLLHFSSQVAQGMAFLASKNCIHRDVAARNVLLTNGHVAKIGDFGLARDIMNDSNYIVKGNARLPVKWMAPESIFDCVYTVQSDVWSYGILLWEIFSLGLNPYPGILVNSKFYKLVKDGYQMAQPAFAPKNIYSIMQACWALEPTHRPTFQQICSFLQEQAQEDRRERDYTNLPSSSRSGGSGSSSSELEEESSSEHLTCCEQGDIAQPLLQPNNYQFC
As for `CCc1ccc(-n2cc(C(=O)NOC)c(=O)c3cnc(Nc4ccc(C5CCN(CC(F)(F)F)CC5)cc4)nc32)cc1` [Cpd 188, 8-(4-ethyl-phenyl)-5-oxo-2-{4-[1-(2,2,2-trifluoro-ethyl)-piperidin-4-yl]-phenylamino}-5,8-dihydro-pyrido[2,3-d]pyrimidine-6-carboxylic acid methoxy-amide], the IC50 was determined as 4.1 nM.

Consider `CCc1ccc(-n2cc(C(=O)NOC)c(=O)c3cnc(Nc4ccc(C5CCN(CCS(C)(=O)=O)CC5)cc4)nc32)cc1` [Cpd 96, 8-(4-ethyl-phenyl)-2-{4-[1-(2-methanesulfonyl-ethyl)-piperidin-4-yl]-phenylamino}-5-oxo-5,8-dihydro-pyrido[2,3-d]pyrimidine-6-carboxylic acid methoxy-amide], for which the IC50 is 0.9 nM.

`CONC(=O)c1cn(-c2ccc3c(c2)CCC3)c2nc(Nc3cccc(CCN4CCN(S(C)(=O)=O)CC4)c3)ncc2c1=O` [Cpd 203, 8-indan-5-yl-2-{3-[2-(4-methanesulfonyl-piperazin-1-yl)-ethyl]-phenylamino}-5-oxo-5,8-dihydro-pyrido[2,3-d]pyrimidine-6-carboxylic acid methoxy-amide]: the half-inhibitory concentration (IC50) worked out at 1.4 nM. Under `CCc1ccc(-n2cc(C(=O)NOC)c(=O)c3cnc(Nc4ccc(CCN5CCCC5=O)cc4)nc32)cc1` [Cpd 54, 8-(4-ethyl-phenyl)-5-oxo-2-{4-[2-(2-oxo-pyrrolidin-1-yl)-ethyl]-phenylamino}-5,8-dihydro-pyrido[2,3-d]pyrimidine-6-carboxylic acid methoxy-amide] stands 1.8 nM; under `CCONC(=O)c1cn(-c2ccc3c(c2)CCC3)c2nc(Nc3ccc(CCN4CCCC4=O)cc3)ncc2c1=O` [Cpd 135, 8-indan-5-yl-5-oxo-2-{4-[2-(2-oxo-pyrrolidin-1-yl)-ethyl]-phenylamino}-5,8-dihydro-pyrido[2,3-d]pyrimidine-6-carboxylic acid ethoxy-amide], 66 nM. With `CCc1ccc(-n2cc(C(=O)NOC)c(=O)c3cnc(Nc4ccc(-n5cccc5)cc4)nc32)cc1` [Cpd 317, 8-(4-ethyl-phenyl)-5-oxo-2-(4-pyrrol-1-yl-phenylamino)-5,8-dihydro-pyrido[2,3-d]pyrimidine-6-carboxylic acid methoxy-amide], the IC50 is 5.5 nM.

With `CONC(=O)c1cn(-c2ccc3c(c2)CCC3)c2nc(Nc3cccc(C(=O)NCCN4CCCC4)c3)ncc2c1=O` [Cpd 192, 8-indan-5-yl-5-oxo-2-[3-(2-pyrrolidin-1-yl-ethylcarbamoyl)-phenylamino]-5,8-dihydro-pyrido[2,3-d]pyrimidine-6-carboxylic acid methoxy-amide], the IC50 was 6.3 nM. For `CCc1ccc(-n2cc(C(=O)NOC)c(=O)c3cnc(Nc4ccc(C5CCN(CCOC)CC5)cc4)nc32)cc1` [Cpd 207, 8-(4-ethyl-phenyl)-2-{4-[1-(2-methoxy-ethyl)-piperidin-4-yl]-phenylamino}-5-oxo-5,8-dihydro-pyrido[2,3-d]pyrimidine-6-carboxylic acid methoxy-amide] the value was 0.3 nM. With `CONC(=O)c1cn(-c2ccc3c(c2)CCC3)c2nc(Nc3ccc(CCc4n[nH]c(C)n4)cc3)ncc2c1=O` [Cpd 172, 8-indan-5-yl-2-{4-[2-(5-methyl-1H-[1,2,4]triazol-3-yl)-ethyl]-phenylamino}-5-oxo-5,8-dihydro-pyrido[2,3-d]pyrimidine-6-carboxylic acid methoxy-amide], the IC50 was 2.3 nM.

Regarding `CCN1CCCC1CNC(=O)c1cccc(Nc2ncc3c(=O)c(C(=O)NOC)cn(-c4ccc5c(c4)CCC5)c3n2)c1` (stereo not drawn) [Cpd 193, 2-{3-[(1-ethyl-pyrrolidin-2-ylmethyl)-carbamoyl]-phenylamino}-8-indan-5-yl-5-oxo-5,8-dihydro-pyrido[2,3-d]pyrimidine-6-carboxylic acid methoxy-amide], the IC50 is 2.5 nM. On to `CONC(=O)c1cn(-c2ccc3c(c2)CCC3)c2nc(Nc3ccc([C@]4(O)CCN(C)C[C@H]4O)cc3)ncc2c1=O` [Cpd 250, 2-{4-[(3R,4R)-(3,4-dihydroxy-1-methyl-piperidin-4-yl)]-phenylamino}-8-indan-5-yl-5-oxo-5,8-dihydro-pyrido[2,3-d]pyrimidine-6-carboxylic acid methoxy-amide], for which the IC50 worked out at 0.39 nM. Take `CCc1ccc(-n2cc(C(=O)NOC)c(=O)c3cnc(Nc4ccc(NCCCOC)cc4)nc32)cc1` [Cpd 213, 8-(4-ethyl-phenyl)-2-[4-(3-methoxy-propylamino)-phenylamino]-5-oxo-5,8-dihydro-pyrido[2,3-d]pyrimidine-6-carboxylic acid methoxy-amide]: the IC50 turned out to be 1.1 nM. Under `CC(C)ONC(=O)c1cn(-c2ccc3c(c2)CCC3)c2nc(Nc3ccc(CCN4CCCC4)cc3)ncc2c1=O` [Cpd 133, 8-indan-5-yl-5-oxo-2-[4-(2-pyrrolidin-1-yl-ethyl)-phenylamino]-5,8-dihydro-pyrido[2,3-d]pyrimidine-6-carboxylic acid isopropoxy-amide] stands 1.2 nM; under `CONC(=O)c1cn(-c2ccc3c(c2)CCC3)c2nc(Nc3ccc(CCN4CCCC4=O)cc3)ncc2c1=O` [Cpd 134, 8-indan-5-yl-5-oxo-2-{4-[2-(2-oxo-pyrrolidin-1-yl)-ethyl]-phenylamino}-5,8-dihydro-pyrido[2,3-d]pyrimidine-6-carboxylic acid methoxy-amide], 6.8 nM; under `CONC(=O)c1cn(-c2ccc3c(c2)CCC3)c2nc(Nc3cccc(CCN4CCN(C)CC4)c3)ncc2c1=O` [Cpd 200, 8-indan-5-yl-2-{3-[2-(4-methyl-piperazin-1-yl)-ethyl]-phenylamino}-5-oxo-5,8-dihydro-pyrido[2,3-d]pyrimidine-6-carboxylic acid methoxy-amide], 1.3 nM. Under `CONC(=O)c1cn(-c2ccc3c(c2)CCC3)c2nc(Nc3ccc(CN4CCCC4=O)cc3)ncc2c1=O` [Cpd 9, 8-indan-5-yl-5-oxo-2-[4-(2-oxo-pyrrolidin-1-ylmethyl)-phenylamino]-5,8-dihydro-pyrido[2,3-d]pyrimidine-6-carboxylic acid methoxy-amide] stands 0.24 nM; under `CONC(=O)c1cn(-c2ccc3c(c2)CCC3)c2nc(Nc3ccc(CCc4ncn[nH]4)cc3)ncc2c1=O` [Cpd 190, 8-indan-5-yl-5-oxo-2-{4-[2-(1H-[1,2,4]triazol-3-yl)-ethyl]-phenylamino}-5,8-dihydro-pyrido[2,3-d]pyrimidine-6-carboxylic acid methoxy-amide], 4.2 nM. For `CONC(=O)c1cn(-c2ccc3c(c2)CCC3)c2nc(Nc3cccc(OC4CN5CCC4CC5)c3)ncc2c1=O` (stereo not drawn) [Cpd 267, 2-[3-(1-aza-bicyclo[2.2.2]oct-3-yloxy)-phenylamino]-8-indan-5-yl-5-oxo-5,8-dihydro-pyrido[2,3-d]pyrimidine-6-carboxylic acid methoxy-amide] the value was 0.42 nM; for `CONC(=O)c1cn(-c2cnc3c(c2)CCC3)c2nc(Nc3ccc(CCS(C)(=O)=O)cc3)ncc2c1=O` [Cpd 226, 8-(6,7-dihydro-5H-[1]pyrindin-3-yl)-2-[4-(2-methanesulfonyl-ethyl)-phenylamino]-5-oxo-5,8-dihydro-pyrido[2,3-d]pyrimidine-6-carboxylic acid methoxy-amide], 7.7 nM; for `CCc1ccc(-n2cc(C(=O)NOC)c(=O)c3cnc(Nc4ccc(OC5CCN(CC(F)(F)F)CC5)cc4)nc32)cc1` [Cpd 318, 8-(4-ethyl-phenyl)-5-oxo-2-{4-[1-(2,2,2-trifluoro-ethyl)-piperidin-4-yloxy]-phenylamino}-5,8-dihydro-pyrido[2,3-d]pyrimidine-6-carboxylic acid methoxy-amide], 5.3 nM. Turning to `CCc1ccc(-n2cc(C(=O)NOC)c(=O)c3cnc(Nc4cccc(OCCCOC)c4)nc32)cc1` [Cpd 216, 8-(4-ethyl-phenyl)-2-[3-(3-methoxy-propoxy)-phenylamino]-5-oxo-5,8-dihydro-pyrido[2,3-d]pyrimidine-6-carboxylic acid methoxy-amide], the IC50 stood at 1.6 nM. For the molecule `CCc1ccc(-n2cc(C(=O)NOC(C)C)c(=O)c3cnc(Nc4ccc(C5CCN(CC)CC5)cc4)nc32)cc1` [Cpd 182, 8-(4-ethyl-phenyl)-2-[4-(1-ethyl-piperidin-4-yl)-phenylamino]-5-oxo-5,8-dihydro-pyrido[2,3-d]pyrimidine-6-carboxylic acid isopropoxy-amide], the IC50 turned out to be 0.7 nM. On to `CONC(=O)c1cn(-c2ccc3c(c2)CCC3)c2nc(Nc3ccc4[nH]cnc4c3)ncc2c1=O` [Cpd 302, 2-(1H-benzoimidazol-5-ylamino)-8-indan-5-yl-5-oxo-5,8-dihydro-pyrido[2,3-d]pyrimidine-6-carboxylic acid methoxy-amide], for which the IC50 stood at 319 nM. As to `CONC(=O)c1cn(-c2ccc3c(c2)CCC3)c2nc(Nc3ccc(C(=O)NS(C)(=O)=O)cc3)ncc2c1=O` [Cpd 214, 8-indan-5-yl-2-(4-methanesulfonylaminocarbonyl-phenylamino)-5-oxo-5,8-dihydro-pyrido[2,3-d]pyrimidine-6-carboxylic acid methoxy-amide], the IC50 is 1.6 nM. Turning to `CONC(=O)c1cn(-c2ccc3c(c2)CCC3)c2nc(Nc3ccc(C4CCNCC4)cc3)ncc2c1=O` [Cpd 75, 8-indan-5-yl-5-oxo-2-(4-piperidin-4-yl-phenylamino)-5,8-dihydro-pyrido[2,3-d]pyrimidine-6-carboxylic acid methoxy-amide], the IC50 amounted to 0.53 nM. For the molecule `NC(=O)c1cn(-c2ccc3c(c2)CCC3)c2nc(Nc3cccc(C(=O)N4CCOCC4)c3)ncc2c1=O` [Cpd 120, 8-indan-5-yl-2-[3-(morpholine-4-carbonyl)-phenylamino]-5-oxo-5,8-dihydro-pyrido[2,3-d]pyrimidine-6-carboxylic acid amide], the IC50 came out at 17 nM. As for `CNC(=O)c1cn(-c2ccc3c(c2)CCC3)c2nc(Nc3cccc(CCCN(C)C)c3)ncc2c1=O` [Cpd 116, 2-[3-(3-dimethylamino-propyl)-phenylamino]-8-indan-5-yl-5-oxo-5,8-dihydro-pyrido[2,3-d]pyrimidine-6-carboxylic acid methylamide], the IC50 was 5.3 nM.

For the origin of these results see patent publication US20080114007A1 (priority 2006, published 2008).
